Experimental findings from ChEMBL document CHEMBL3044915, “Synthesis and Insecticidal Activity of N-(4-Aryloxybenzyl)-pyrazolecarboxamide Derivatives” (1996) are described below.

Holding throughout (format): functional
Test [1] relates to Nilaparvata lugens. The test can be described thus: Insecticidal activity against Nilaparvata lugens (brown planthopper) third-instar larvae assessed as mortality at 12.5 ppm applied through spray measured after 5 days. Particulars: 120 h.
Test [2] has as its system Nephotettix cincticeps. Briefly: Insecticidal activity against green rice Nephotettix cincticeps (green rice leafhopper) third-instar larvae assessed as mortality at 12.5 ppm applied through spray measured after 4 days. Particulars: 96 h.
In test [3] the test system is Nephotettix cincticeps. Briefly: Insecticidal activity against green rice Nephotettix cincticeps (green rice leafhopper) third-instar larvae assessed as mortality at 0.8 ppm applied through spray measured after 4 days. Particulars: Nephotettix cincticeps, 96 h.
Test [4] has as its system Nilaparvata lugens. Briefly: Insecticidal activity against Nilaparvata lugens (brown planthopper) third-instar larvae assessed as mortality at 0.8 ppm applied through spray measured after 5 days. To be noted: 120 h.
The test system of test [5] is Myzus persicae. Briefly: Insecticidal activity against Myzus persicae (green peach aphid) assessed as mortality at 0.8 ppm measured after 4 days. Particulars: 96 h.
The subject of test [6] is Myzus persicae. Briefly: Insecticidal activity against Myzus persicae (green peach aphid) assessed as mortality at 3.1 ppm measured after 4 days. Particulars: 96 h.
Test [7] deals with Plutella xylostella. The test can be described thus: Insecticidal activity against Plutella xylostella (diamondback moth) third-instar larvae in compound treated cabbage leaf assessed as mortality at 0.8 ppm measured after 4 days. Particulars: 96 h.
In test [8] the test system is Tetranychus urticae. The test can be described thus: Insecticidal activity against Tetranychus urticae (two-spotted spider mite) assessed as mortality at 3.1 ppm.
Test [9] concerns Myzus persicae. Briefly: Insecticidal activity against Myzus persicae (green peach aphid) assessed as mortality at 12.5 ppm measured after 4 days. To be noted: 96 h.
Test [10] concerns Tetranychus urticae. The test can be described thus: Insecticidal activity against Tetranychus urticae (two-spotted spider mite) assessed as mortality at 12.5 ppm.
The test system of test [11] is Nilaparvata lugens. Briefly: Insecticidal activity against Nilaparvata lugens (brown planthopper) third-instar larvae assessed as mortality at 3.1 ppm applied through spray measured after 5 days. Particulars: 120 h.
Test [12] deals with Nephotettix cincticeps. The test can be described thus: Insecticidal activity against green rice Nephotettix cincticeps (green rice leafhopper) third-instar larvae assessed as mortality at 3.1 ppm applied through spray measured after 4 days. To be noted: Nephotettix cincticeps, 96 h.
Test [13] has as its system Plutella xylostella. The test can be described thus: Insecticidal activity against Plutella xylostella (diamondback moth) third-instar larvae in compound treated cabbage leaf assessed as mortality at 3.1 ppm measured after 4 days. To be noted: 96 h.
In test [14] the test system is Plutella xylostella. Briefly: Insecticidal activity against Plutella xylostella (diamondback moth) third-instar larvae in compound treated cabbage leaf assessed as mortality at 12.5 ppm measured after 4 days. Particulars: 96 h.

The mortality is the share of the test organisms that died.

Take `CC1CCc2c1nn(C)c2C(=O)NCc1ccc(Oc2ccc([N+](=O)[O-])cc2)cc1` (stereo not drawn): the mortality at 12.5 ppm with Nilaparvata lugens [1] turned out to be 80%; in the test on Nephotettix cincticeps [2] it was 100%; with Myzus persicae [9], 100%; in the test on Tetranychus urticae [10], 80%; in the test on Plutella xylostella [14] it was 100%. Further, the mortality at 0.8 ppm in the test with Nephotettix cincticeps [3] was determined as 30%; in the test on Nilaparvata lugens [4], 0%; in the test with Myzus persicae [5], 30%; with Plutella xylostella [7], 0%. Also, the mortality at 3.1 ppm in the test with Myzus persicae [6] was 100%; in the test with Tetranychus urticae [8] it was 30%; in the test with Nilaparvata lugens [11] it was 80%; with Nephotettix cincticeps [12], 100%; with Plutella xylostella [13], 100%.

With `CSc1ccc(Oc2ccc(CNC(=O)c3c4c(nn3C)C(C)CC4)cc2)cc1` (stereo not drawn), the mortality at 12.5 ppm came to 80% with Nilaparvata lugens [1]; 100% in the test on Nephotettix cincticeps [2]; 100% with Myzus persicae [9]; 100% in the test on Tetranychus urticae [10]; 100% in the test with Plutella xylostella [14]. In addition, the mortality at 0.8 ppm in the test on Nephotettix cincticeps [3] was found to be 30%; in the test with Nilaparvata lugens [4] it was 30%; with Myzus persicae [5] it was 0%; in the test on Plutella xylostella [7], 0%. In addition, the mortality at 3.1 ppm with Myzus persicae [6] turned out to be 100%; in the test with Tetranychus urticae [8], 80%; in the test on Nilaparvata lugens [11] it was 30%; in the test with Nephotettix cincticeps [12] it was 80%; in the test with Plutella xylostella [13] it was 80%.
